Data taken from patent publication US11649475B2, “Dioxetane compounds and their use for the detection of microorganisms” (NEMIS Technologies AG, priority 2018, dated 2023).

Tests used:
[1] = tested on: Listeria innocua (6a) ATCC 33090; test: Luminescence of culture samples after addition of Compound IIIa; format: cell-based; settings: L.i., inoculation density 10^5 CFU/mL, 6 h cultivation, 10 μM
Procedure: (§1) Similar cell concentrations of all strains were inoculated in triplicate test tubes with M52 broth. In addition, further dilutions of L.m. 2 cells in sterile saline were inoculated in triplicate test tubes. Sterile saline was added to negative control tubes. […] Final concentration of Compound IIIa was 10 μM, final concentration of dimethyl sulfoxide was 1% v/v. Light emission was recorded with a plate reader equipped with a luminescence detection system. […] It was possible to detect 10^3 CFU/mL of Listeria monocytogenes after 6 h of incubation as indicated by a signal-to-noise ratio of 2 relative to sterile controls.

[2] = tested on: Listeria monocytogenes (4b) ATCC 19115; test: as above; format: cell-based; settings: 6 h cultivation, 10 μM; for Mean RLU (n = 3): 16-20 min after addition
Procedure: as §1

[3] = tested on: Escherichia coli ATCC 25922; test: as above; format: cell-based; settings: E.c., inoculation density 10^5 CFU/mL, 6 h cultivation, 10 μM
Procedure: as §1

[4] = tested on: Listeria monocytogenes ATCC 7644; test: as above; format: cell-based; settings: L.m. 1, inoculation density 10^5 CFU/mL, 6 h cultivation, 10 μM
Procedure: as §1

[5] = tested on: phosphatidylinositol-specific phospholipase C (PI-PLC); test: Enzymatic assay of PI-PLC activity with Compound IIIa; format: biochemical; settings: for RLU: PBS pH 7.4, 1% v/v DMSO
Procedure: Varying concentrations of phosphatidylinositol-specific phospholipase C (PI-PLC) were added and luminescence was recorded at room temperature (Table 4). Assays were performed in a white microtiter plate with 0.25 mL total liquid volume.

[6] = tested on: Salmonella Typhimurium (D) ATCC 14028; test: Luminescence of culture samples after addition of Compound IIa; format: cell-based, Salmonella enterica ssp. I ser. Typhimurium; settings: S.T., inoculation density 10^5 CFU/mL, 6 h cultivation, 10 μM
From the text: (§2) Citrobacter freundii ATCC 8090 (C.f., […] negative), Escherichia coli ATCC 25922 (E.c., […] negative), Salmonella Typhimurium (D) ATCC […]., Salmonella enterica ssp. I ser. Typhimurium, […] positive), Salmonella Enteritidis (D) ATCC […]. 1, Salmonella enterica ssp. enterica ser. Enteritidis, […] positive) and Salmonella Enteritidis RKI 05/[…]. 2, Salmonella enterica ssp. enterica ser. […] Similar cell concentrations of all strains were inoculated in triplicate test tubes with Nutrient Broth. […] Sterile saline was added to negative control tubes. […] Final concentration Compound IIa was 10 μM, final concentration of dimethyl sulfoxide was […]. Light emission was recorded with a plate reader equipped with a luminescence detection system.

[7] = tested on: Salmonella Enteritidis RKI 05/07992; test: Limit of detection of Salmonella enterica, Compound IIa versus MUCAP; format: cell-based; settings: Compound IIa 10 μM versus MUCAP 0.1 mM, PBS, 15% DMSO
Procedure: Salmonella Enteritidis RKI 05/07992 was cultivated in Nutrient Broth (5 g/I peptone, 5 g/l NaCl, 2 g/L yeast extract, 1 g/l beef extract, pH 7.4) for 20 h (37° C., 150 rpm) and then serially diluted in phosphate buffered saline. Cell suspensions were mixed 1:1 v/v with phosphate buffered saline containing dimethyl sulfoxide (final concentration in assay 15%) and either Compound IIa (final concentration 10 μM) or 4-Methylumbelliferyl caprylate (MUCAP, final concentration 0.1 mM). Assays were performed in microplates, total liquid volume was 0.2 mL. Light emission and fluorescence (excitation 360 nm, emission 455 nm) were recorded with a SpectraMax M5 (Molecular Devices, Sunnyvale, Calif., USA) plate reader. Cell concentration of undiluted culture was estimated from optical density (600 nm).

[8] = tested on: pig liver esterase; test: Enzymatic assay of pig liver esterase activity with Compound IIa; settings: 62.5 μM, PBS pH 7.4, 10% v/v DMSO, 20 min measurement period
Procedure: The assay mix was pre-incubated for 20 min at room temperature, then 1:5 v/v of pig liver esterase solutions containing varying enzyme concentrations were added and luminescence was recorded for 20 min at room temperature with a SpectraMax M5 reader in luminescence mode. Assays were performed in a black microtiter plate with a total liquid volume of 0.25 mL.

[9] = tested on: Salmonella Enteritidis RKI 05/07992; test: Luminescence of culture samples after addition of Compound IIa; format: cell-based, Salmonella enterica ssp. enterica ser. Enteritidis; settings: for Signal to noise ratio (to sterile) / Mean RLU (n = 3): 6 h cultivation, 10 μM; for Mean RLU (n = 3): 27-30 min after addition
From the text: as §2

[10] = tested on: Salmonella Enteritidis (D) ATCC 13076; test: as above; format: cell-based, Salmonella enterica ssp. enterica ser. Enteritidis; settings: S.E. 1, inoculation density 10^5 CFU/mL, 6 h cultivation, 10 μM
From the text: as §2

[11] = tested on: Escherichia coli ATCC 25922; test: as above; format: cell-based; settings: E.c., inoculation density 10^5 CFU/mL, 6 h cultivation, 10 μM
From the text: as §2

[12] = tested on: Citrobacter freundii ATCC 8090; test: as above; format: cell-based; settings: C.f., inoculation density 10^5 CFU/mL, 6 h cultivation, 10 μM
From the text: as §2

[13] = tested on: glucose; test: Detection of glucose in Escherichia coli culture supernatant with compound VIa and glucose oxidase; format: biochemical; settings: 40 μM compound VIa in HEPES buffer pH 7.0, 1 mg/mL glucose oxidase, 20 min
Procedure: Cells were separated from culture supernatant by centrifugation (13'000×g, 2 min). […] A second negative control also contained 5 mM glucose, but no glucose oxidase. Culture supernatant with and without glucose (0.1 mL) was mixed in a white microtiter plate with 0.1 mL of HEPES buffer (100 mM, pH 7.0) containing 40 μM of compound VIa, reacting with hydrogen peroxide) and 1 mg/mL commercially available glucose oxidase from Aspergillus niger. […] Presence of glucose lead to continuously increasing luminescence when compound Via and glucose oxidase were also present.

[14] = tested on: Methicillin-resistant Staphylococcus aureus ATCC 33592 (MRSA); test: Luminescence development in cultures with and without oxacillin, Compound IVa; format: cell-based; settings: oxacillin 20 mg/L, 6 h, 10 μM compound IVa as indicator
Procedure: (§3) Methicillin-resistant Staphylococcus aureus ATCC 33592 (MRSA), a strain which is resistant to penicillin derivatives such as methicillin and oxacillin, and methicillin-susceptible Staphylococcus aureus ATCC 29213 (MSSA) were cultivated overnight at 37° C. in nutrient broth (5 g/L peptone, 5 g/L sodium chloride, 2 g/L yeast extract, 1 g/L meat extract, pH 7.4) and diluted in sterile saline. MRSA and MSSA strains were inoculated at approx. 10^6 CFU/mL in nutrient broth containing compound IVa at a final concentration of 10 μM. For each strain, one culture was supplemented with oxacillin (20 mg/L final concentration) and one culture was left without antibiotics. Tube cultures were incubated at 37° C. and 150 rpm. A sterile control (nutrient broth with 10 μM of compound IVa) was incubated in parallel. Luminescence of culture samples (0.2 mL in a white microtiter plate) was recorded at regular intervals for 6 h with a SpectraMax M5 plate reader (FIG. 4: Luminescence development in cultures of MRSA and MSSA in the presence and absence of the antibiotic oxacillin). […] Growing and non-growing cultures could be distinguished after 1 h of incubation.

[15] = tested on: methicillin-susceptible Staphylococcus aureus ATCC 29213 (MSSA); test: as above; format: cell-based; settings: oxacillin 20 mg/L, 6 h, 10 μM compound IVa as indicator
Procedure: as §3

[16] = L.m. 2, inoculation density 10^2 CFU/mL
[17] = L.m. 2, inoculation density 10^3 CFU/mL
[18] = L.m. 2, inoculation density 10^4 CFU/mL
[19] = L.m. 2, inoculation density 10^5 CFU/mL
[20] = S.E. 2, inoculation density 10^1 CFU/mL
[21] = S.E. 2, inoculation density 10^2 CFU/mL
[22] = S.E. 2, inoculation density 10^3 CFU/mL
[23] = S.E. 2, inoculation density 10^4 CFU/mL
[24] = S.E. 2, inoculation density 10^5 CFU/mL

Structure (SMILES): COC(=O)/C=C/c1ccc(C2(OC)OOC23C2CC4CC(C2)CC3C4)c(Cl)c1OCc1ccc(OP(=O)(O)O[C@@H]2[C@H](O)[C@H](O)[C@@H](O)[C@H](O)[C@H]2O)cc1 (some centres unmarked) [Compound IIIa]
- Signal to noise ratio (to sterile) [1]: 2.3
- Mean RLU (n = 3) ([1]; 16-20 min after addition): 33 RLU
- Signal to noise ratio (to sterile) [2, 16]: 0.9
- Mean RLU (n = 3) [2, 16]: 12 RLU
- Signal to noise ratio (to sterile) [2, 17]: 2.2
- Mean RLU (n = 3) [2, 17]: 31 RLU
- Signal to noise ratio (to sterile) [2, 18]: 17
- Mean RLU (n = 3) [2, 18]: 242 RLU
- Signal to noise ratio (to sterile) [2, 19]: 716
- Mean RLU (n = 3) [2, 19]: 10258 RLU
- Signal to noise ratio (to sterile) [3]: 0.5
- Mean RLU (n = 3) ([3]; 16-20 min after addition): 7 RLU
- Signal to noise ratio (to sterile) [4]: 832
- Mean RLU (n = 3) ([4]; 16-20 min after addition): 11913 RLU
- Signal to noise ratio ([5]; PI-PLC added 5 · 10^−1 U/mL): 862
- RLU ([5]; PI-PLC added 5 · 10^−1 U/mL, 10 μM): 60265 RLU
- Signal to noise ratio ([5]; PI-PLC added 5 · 10^−2 U/mL): 512
- RLU ([5]; PI-PLC added 5 · 10^−2 U/mL, 10 μM): 35822 RLU
- Signal to noise ratio ([5]; PI-PLC added 5 · 10^−3 U/mL): 148
- RLU ([5]; PI-PLC added 5 · 10^−3 U/mL, 10 μM): 10369 RLU
- Signal to noise ratio ([5]; PI-PLC added 5 · 10^−4 U/mL): 17
- RLU ([5]; PI-PLC added 5 · 10^−4 U/mL, 10 μM): 1191 RLU

Structure (SMILES): CCCCCCCC(=O)Oc1ccc(COc2c(/C=C/C(=O)O)ccc(C3(OC)OOC34C3CC5CC(C3)CC4C5)c2Cl)cc1 (centres unmarked) [Compound IIa]
- Signal to noise ratio (to sterile) [6]: 283
- Mean RLU (n = 3) ([6]; 27-30 min after addition): 228202 RLU
- limit of detection for Salmonella enterica, lower than with MUCAP [7]: 625 fold
- relation of pig liver esterase concentration and maximal RLU [8]: positive linear correlation over two orders of magnitude
- relation of PI-PLC concentration and maximal RLU ([5]; 10 μM, 20 min measurement period): positive correlation over two orders of magnitude
- Signal to noise ratio (to sterile) [9, 20]: 2
- Mean RLU (n = 3) [9, 20]: 1041 RLU
- Signal to noise ratio (to sterile) [9, 21]: 9
- Mean RLU (n = 3) [9, 21]: 5100 RLU
- Signal to noise ratio (to sterile) [9, 22]: 72
- Mean RLU (n = 3) [9, 22]: 40236 RLU
- Signal to noise ratio (to sterile) [9, 23]: 275
- Mean RLU (n = 3) [9, 23]: 154011 RLU
- Signal to noise ratio (to sterile) [9, 24]: 693
- Mean RLU (n = 3) [9, 24]: 387911 RLU
- detectable inoculation density of Salmonella Enteritidis ([9]; after 6 h of incubation, signal-to-noise ratio of 2 relative to sterile controls): 10 CFU/mL
- Signal to noise ratio (to sterile) [10]: 408
- Mean RLU (n = 3) ([10]; 27-30 min after addition): 158262 RLU
- Signal to noise ratio (to sterile) [11]: 6
- Mean RLU (n = 3) ([11]; 27-30 min after addition): 3504 RLU
- Signal to noise ratio (to sterile) [12]: 12
- Mean RLU (n = 3) ([12]; 27-30 min after addition): 6480 RLU

Structure (SMILES): COC1(c2ccc(/C=C/C(=O)O)c(B3OC(C)(C)C(C)(C)O3)c2)OOC12C1CC3CC(C1)CC2C3 (centres unmarked) [VIa]
- rate of increase of luminescence [13]: positive correlation with the glucose concentration

Structure (SMILES): Cc1onc(-c2ccccc2)c1C(=O)N[C@@H]1C(=O)N2[C@@H]1SC(C)(C)[C@@H]2C(=O)O [oxacillin]
- growth by time course of luminescence intensity [14]: multiplied both in the presence and the absence of oxacillin
- growth by time course of luminescence intensity [15]: showed an increase in luminescence only in the antibiotic-free culture
